Assay in all cases: growth of human tumour cells (NCI), 48 h
Assay [1] deals with HCT-116 colon.
The test system of assay [2] is IGROV1 ovarian.
The subject of assay [3] is NCI-H226 lung.
The test system of assay [4] is NCI-H522 lung.
The subject of assay [5] is PC-3 prostate.
Assay [6] relates to SF-295 CNS.
Assay [7] deals with SF-539 CNS.
For assay [8], the system named is UACC-62 melanoma.
The subject of assay [9] is MALME-3M melanoma.
In assay [10] the test system is OVCAR-4 ovarian.

Our source for the GI50 and TGI values is PubChem BioAssay (NCI).

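In this assay, cells in 96-well plates receive the compound at five concentrations for 48 hours. Endpoints are linearly interpolated between the surrounding concentrations. GI50: concentration for 50% inhibition of growth. TGI denotes the concentration required for complete inhibition of growth.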

On to `Cc1ccc(C2C3Cc4ccccc4C3=NN2c2ccc(S(=O)(=O)/N=c3\scc(-c4ccccc4)n3-c3ccccc3)cc2)cc1` (centres undefined), for which the GI50 in assay [1] was 18.6 µM; in assay [2], 26.5 µM; in assay [3], 21.4 µM; in assay [4] it was 22 µM; in [5] it was 21.3 µM; in assay [6] it was 19.1 µM. Besides, the figures for the GI50 in assay [7] and in assay [8] were 19.5 µM and 14 µM, respectively. Also, the TGI was more than 100 µM in assay [1]; more than 100 µM in [2]; 67.2 µM in [3]; 66.8 µM in [4]; 53.2 µM in assay [5]; 40.1 µM in assay [6]. Further, the figures for the TGI in assay [7] and in [8] were 37.3 µM and 27.7 µM, respectively.
Consider `COc1ccc2c(c1)C(=O)c1c-2c(OCCN(C)C)nc2ccccc12`, for which the GI50 is 0.768 µM in assay [1]; 2.97 µM in assay [2]; 2.46 µM in [9]; 2.15 µM in assay [3]; 1.87 µM in assay [4]; 3.03 µM in [10]. For the same molecule, the GI50 in [5] is 4.99 µM; in [7], 4.75 µM; in [8], 3.9 µM. For the same molecule, the TGI in assay [1] worked out at 10.8 µM; in [2], 14.8 µM; in assay [9] it was 8.65 µM; in assay [3], 10.4 µM; in [4] it was 4.75 µM; in assay [10] it was 10.8 µM. Moreover, the TGI in [5] worked out at 21.4 µM; in assay [7] it was 17.9 µM; in assay [8], 15.7 µM.
As for `CCOC(=O)c1cc2c(cc1Cl)SC(=Nc1ccccc1)N(S(=O)(=O)c1ccc(Br)s1)S2(=O)=O`, the GI50 in assay [1] was 14.8 µM; in assay [2], 17.7 µM; in [3], 16.2 µM; in assay [4], 26.4 µM; in assay [10], 23.4 µM; in [5], 14.5 µM. Besides, the GI50 in assay [6] is 21.5 µM; in [7], 14.3 µM; in assay [8], 14.4 µM. Moreover, the TGI came to 30.8 µM in assay [1]; 53.4 µM in assay [2]; 35 µM in assay [3]; 74.9 µM in assay [4]; 59.8 µM in assay [10]; 32.1 µM in assay [5]. Also, the TGI was found to be 46.4 µM in assay [6], 29.3 µM in assay [7] and 28.1 µM in assay [8].
`C1CSCCSCCCSCCSCCCSCCSCCCSCCSC1`: the TGI in assay [1], in [2], in assay [9], in assay [3], in assay [4] and in [10] was more than 100 µM in each case. In addition, the TGI in assay [5], in [6] and in [7] was more than 100 µM in each case.
Turning to `Cn1ccnc1Oc1ccc(Cl)cc1`, the TGI worked out at 24.3 µM in assay [1]; 10.2 µM in assay [9]; 44.3 µM in assay [3]; 11.6 µM in [4]; 19.8 µM in assay [10]; 34.2 µM in assay [5]. For the same molecule, the TGI in assay [7] turned out to be 31.7 µM; in assay [8] it was 23.5 µM.
As to `NNc1nnc(-c2nnc(NN)o2)o1`, the TGI in [1], in [2], in assay [9], in assay [3], in [10] and in assay [5] was more than 10 µM throughout. The TGI in [6], in [7] and in assay [8] was more than 10 µM each time.
With `C[n+]1c2ccccc2nc2c(N)cc(N)cc21`, the GI50 in assay [1] was 10.5 µM; in assay [2], 14.4 µM; in assay [9] it was 2.39 µM; in assay [3] it was 8.41 µM; in [10], 5.87 µM; in assay [5] it was 21.3 µM. In addition, the figures for the GI50 in assay [6], in assay [7] and in assay [8] were 3.6 µM, 5.41 µM and 12.9 µM, respectively. Moreover, the TGI was 83.6 µM in assay [1]; 57 µM in [2]; 9.77 µM in [9]; more than 100 µM in assay [3]; more than 100 µM in [10]; more than 100 µM in assay [5]. In addition, the TGI in assay [6] worked out at 31 µM; in [7], 32.2 µM; in assay [8] it was 31.7 µM.
Regarding `COC(=O)c1cc(-c2ccc(OC)c(OC)c2)[nH]c1N/N=C/c1c(Cl)cccc1Cl`, the GI50 in assay [1] is 0.396 µM; in [9], 0.86 µM; in [3] it was 1.9 µM; in [4], 0.502 µM; in assay [10], 1.67 µM; in [5], 0.538 µM. In addition, the results for the GI50 in assay [6], in assay [7] and in assay [8] were 0.257 µM, 0.317 µM and 0.552 µM, respectively. For the same molecule, the TGI was 2.11 µM in [1]; 31.8 µM in [9]; more than 51.3 µM in assay [3]; 2.51 µM in assay [4]; 12.1 µM in assay [10]; 2.07 µM in assay [6]. The TGI amounted to 1.02 µM in assay [7] and 11.2 µM in [8].
Turning to `COc1cc2ncc3c(nc4sccn43)c2cc1OC`, the GI50 in assay [1] is 13.7 µM; in [9] it was 5.86 µM; in assay [4], 86.1 µM; in assay [10] it was 32 µM; in [5], 47.9 µM; in assay [6], 18.3 µM. The GI50 was 15.6 µM in assay [7] and 22.9 µM in assay [8]. In addition, the TGI was 78.2 µM in [1]; 32.6 µM in assay [9]; more than 100 µM in assay [4]; 70.4 µM in assay [10]; more than 100 µM in assay [5]; 62.8 µM in assay [6]. The TGI in assay [7] was 55.2 µM; in assay [8], more than 100 µM.
